The test system of one series is E. faecalis ATCC 29212. In words: MIC determination. Type of series: cell-based, Enterococcus faecalis. Conditions: Gram-positive E. faecalis ATCC 29212, Mueller Hinton Broth. Here is the method: (§1) Klebsiella pneumoniae (ATCC 49619), Escherichia coli (ATCC 25922), Staphylococcus aureus (ATCC 25928) and Enterococcus faecalis (ATCC 29212) strains were used as Gram-negative and Gram-positive bacterial cultures. The stock solutions of the tested compounds (dissolved in 90% (v/v) DMSO/H2O at 10 mM concentration) were diluted in 100 μL of Mueller Hinton Broth, and then two-fold serial dilutions were performed. As a starting point, 100 μM concentration of the compounds was used. Then, 10^−4 dilution of an overnight bacterial culture in 100 μL of medium was added to each well, with the exception of the medium control wells. Minimum inhibitory concentration (MIC) values of compounds were determined according to our previous work.

The subject of another series is S. aureus ATCC 25928. Briefly: MIC determination. Type of series: cell-based, Staphylococcus aureus. Conditions: Gram-positive S. aureus ATCC 25928, Mueller Hinton Broth. How it is done: as §1
The next series deals with A549. Briefly: MTT cytotoxicity assay. Type of series: cell-based, human. Conditions: for IC50: 24 h incubation time; for effect on cell viability (in words): up to 20 µM, 24 h. How it is done: (§2) To test the biological effects of the Cu(II) complexes and the ligands on human cancer cells, DU-145 prostate, A549 lung, and MCF-7 breast adenocarcinoma cells, as well as the multidrug-resistant MCF-7 KCR breast cancer cells were utilized. All the cell lines were maintained in RPMI-1640 media (Biosera, Nuaille, France) complemented with 10% fetal bovine serum (FBS), 2 mM L-glutamine, 0.01% streptomycin and 0.005% penicillin, (Biosera, Nuaille, France) and were cultured under standard conditions in a 37 °C incubator at 5% CO2 and 95% humidity. The cell lines were originally obtained from ATCC.
(§3) The effect of the complexes and of their ligands alone on the viability (on the metabolic activity) of human cancer cells was assessed by MTT assay. The tested compounds were dissolved in 90% (v/v) DMSO/H2O at 10 mM concentration. Equimolar solutions of the ligand CuCl2 salt were used for the cytotoxicity assays. The metal salts without ligands were also tested. For this, 1 × 10^4 cells/well were seeded into 96-well plates and left to grow overnight. On the following day, cells were exposed to increasing concentrations of each compound (0; 2.5; 5; 10; 15; 20 µM). After a 24 h incubation, cells were washed with PBS buffer and then incubated with 0.5 mg/mL MTT (Sigma-Aldrich, St Louis, Missouri, MO, USA) for 1 h at 37 °C. The formazan crystals were solubilized in DMSO (Molar Chemicals, Halásztelek, Hungary), and the absorbance of samples was determined at 570 nm using a Synergy HTX plate reader (BioTek, Winooski, Vermont, VT, USA). Absorption corresponding to the untreated control samples was considered as 100%.

The test system of a further series is DU-145. In words: MTT cytotoxicity assay. Type of series: cell-based, human. As to conditions: DU-145, MTT; for IC50: 24 h incubation time; for effect on cell viability (in words): up to 20 µM, 24 h. How it is done:
as §2, §3
(Formazan colour is commonly taken as a measure of viable cells.)

The subject of the next series is MCF-7 KCR. In words: MTT cytotoxicity assay. In kind it is cell-based, human. Conditions: for effect on cell viability (in words): up to 20 µM, 24 h. Here is the method: as §2, §3
For another series, the system named is MCF-7. In words: MTT cytotoxicity assay. Type of series: cell-based, human. Conditions: MCF-7, MTT; for IC50: 24 h incubation time; for effect on cell viability (in words): up to 20 µM, 24 h. Here is the method: as §2, §3
Series [1] relates to A549, MCF-7, MCF-7 KCR and DU-145 cells. Briefly: γH2AX immunostaining (DNA double-strand breaks). Type of series: cell-based, human. As to conditions: 20 µM, 3 h. How it is done: In order to determine the degree of DNA damage induced by the treatments, DNA double-strand breaks were visualized by γH2AX immunostaining. For this, 1 × 10^5 cells/well were seeded onto coverslips in 24-well plates. […] Then, cells were fixed with 4% formaldehyde (Molar Chemicals, Halásztelek, Hungary), permeabilized with 0.3% Triton-X-100 (Calbiochem, Merck Millipore, Darmstadt, Germany) and were blocked using 5% bovine serum albumin (BSA) (Sigma-Aldrich, St. Louis, MO, USA). Then, the samples were incubated with anti-γH2AX antibody (Thermo Fisher Scientific, Waltham, MA, USA) in 1:300 dilution followed by Alexa 488 fluorophore-conjugated goat anti-mouse secondary antibody (Abcam, Cambridge, UK) in 1:600 dilution. The fluorescence intensity of the stained samples was detected by an Olympus FV10i confocal microscope.

The next series can be described thus: physchem. Type of series: physicochemical. Here is the method: (§4) An Orion 710A pH-meter equipped with a Metrohm combined electrode (type 6.0234.100) and a Metrohm 665 Dosimat burette were used for the UV–vis titrations at 25.0 ± 0.1 °C. Ionic strength of 0.10 M (KCl) was used to keep the activity coefficients constant. The titrations were performed with carbonate-free KOH solution of known concentration (0.10 M) with 30% (v/v) DMSO content. […] The average water ionization constant (pKw) is 14.54 ± 0.05 in the 30% (v/v) DMSO/H2O mixture. Argon was always passed over the solutions during the titrations. An Agilent Cary 8454 diode array spectrophotometer was used to record the UV–vis spectra at an interval of 200–800 nm. The path length was 2 cm. Spectrophotometric titrations were performed using a 0.1 M KOH titrant solution with 30% (v/v) DMSO on samples with 30% (v/v) DMSO containing HCl, KCl and the ligand at 20 μM concentration in the pH range 2.0–12.5 in the absence or in the presence of 1 or 0.5 equiv. Cu(II) ions. Proton dissociation constants (Ka) of the TSC ligands, the overall stability constants (β) of the Cu(II) complexes and the UV–vis spectra of the individual species were calculated by the computer program PSEQUAD [41] as was done in our previous works.

Series [2] is classed as physicochemical. As to conditions: for logβ [CuLH−1] / logβ [CuL]+: Cu(II) complex of the named ligand, 30% (v/v) DMSO/H2O, T = 25.0 °C, I = 0.1 M (KCl); for pCu5.0: calculated at pH 5.0, cCu(II) = 20 µM; for pCu5.0 / pCu6.0 / pCu7.4: cligand = 20 µM; for pCu6.0: estimated at pH 6.0, cCu(II) = 20 µM; for pCu7.4: estimated at pH 7.4, cCu(II) = 20 µM. How it is done:
as §4

Series [3] can be described thus: direct redox reaction of the Cu(II) complexes with GSH (UV–vis, anaerobic). In kind it is physicochemical. Conditions: Cu(II) complex (25 µM) of the named ligand with GSH (1.25 mM), pH 7.4, anaerobic, 30% (v/v) DMSO/H2O, 25.0 °C. Here is the method: The redox reaction of the Cu(II) complexes with GSH and ascorbic acid was studied at 25.0 ± 0.1 °C, at pH 7.40 (10 mM HEPES with 0.1 M KCl) on an Agilent Cary 8454 diode array spectrophotometer using a special, tightly closed tandem cuvette (Hellma Tandem Cell, 238-QS). The complex and the reducing agent were separated until the reaction was triggered. Both isolated pockets of the tandem cuvette were completely deoxygenated by bubbling argon for 10 min before mixing the reactants. Spectra were recorded before and then immediately after the mixing, and changes were followed till no further absorbance change was observed. The stock solutions of the reducing agents and the complexes were freshly prepared every day.
During the calculations, the absorbance (A)−time (t) curves were fitted and analyzed at the λmax of the complex. (A0 − Afinal) × e ^(−a×t) + Afinal equation was used where A0, Afinal and a parameters were refined and accepted at the minimal value of the weighted sum of squared residuals (difference between the measured and calculated absorbance values) at the given wavelength. Then observed rate constants (kobs) of the redox reaction were obtained from the data points of the simulated absorbance–time curves as the slope of the ln(A/A0) versus t plots.

Series [4] has as its system HCT-116 colon cancer cell line. The arrangement: method as in doi:10.1039/D0NJ01070G, PMID 34453218, PMID 33951554. As to conditions: cited from earlier work.
For series [5] the following is noted: cited from earlier work.
For series [6] the following is noted: cited from earlier work. This is another data set of the same source.
The nature of series [7]: DPPH free radical scavenging assay. As to conditions: for % Scavenging Effect: DPPH:compound = 1:1 ratio after 30 min, ethanol; for IC50: in ethanol, T = 25 °C, cDPPH = 50 µM, ccompound = 5−50 µM. Here is the method: The DPPH (Sigma-Aldrich) free radical scavenging capacity was studied at 25.0 ± 0.1 °C on an Agilent Cary 3500 spectrophotometer with tightly closed tandem cuvette according to our approach with some modifications. The stock solution of DPPH (100 µM) was prepared in ethanol, and 0.5 mL of this solution was added to one pocket of the cuvette and 0.5 mL of the tested compound in different concentrations in ethanol was added to another. The final concentration of the studied compounds was in the range 5–50 µM, where for DPPH concentration, it was always 50 µM. A standard compound Trolox (Sigma-Aldrich) was used as a positive control. The percentage of the antioxidant activity (AA), IC50 values (the concentration of compound at which it reduced 50% of DPPH) and Trolox equivalent antioxidant capacity (TEAC) were calculated.

Setting [8] is: 30% (v/v) DMSO/H2O, T = 25.0 °C, I = 0.1 M (KCl).

Values after ≈ are worked out from the molar mass of the structure shown. Where two headings read alike, the source gives them in different places.

The values that follow come from PMC9822434, “Estradiol-Based Salicylaldehyde (Thio)Semicarbazones and Their Copper Complexes with Anticancer, Antibacterial and Antioxidant Activities” (Molecules, 2022).

Consider `[Cl][Cu][Cl]` [CuCl2, reference compound], for which the MIC in the series with E. faecalis ATCC 29212 and in the series on S. aureus ATCC 25928 was >100 µM each time. Also, the IC50 in the series with A549, in the series with DU-145, in the series on MCF-7 KCR (24 h incubation time) and with MCF-7 was > 20 µM throughout. Besides, the “effect on cell viability (in words)” value in the series on A549, with DU-145, in the series with MCF-7 KCR and in the series on MCF-7 was “No toxic effect” in each case. Besides, the “DNA double-strand breaks (γH2AX) vs untreated control cells” value in [1] is “None of these treatments caused a higher degree of DNA damage”.

With `CN(C)C(=S)NN=Cc1cc2c(cc1O)CCC1C2CCC2(C)C(=O)CCC12` (stereo not drawn) [Me2-estrone-TSC, reference compound], the pKa in the series “physchem” is on record as 9.02 ± 0.03 ^4. In series [2], the “pKa [CuL]+” value is listed as 3.92 ^4, the “logβ [CuLH−1]” value is 9.44 ± 0.07 ^4, the “logβ [CuL]+” value is given as 13.36 ± 0.08 ^4 and the pCu5.0 is 8.0. Besides, in series [2], the pCu6.0 was 9.7 and the pCu7.4 is reported as 12.5 ^4. In addition, the kobs in series [3] was 0.05 ^4 min^−1. For the same molecule, in [4], the IC50 is 21 µM.

Take `CNC(=S)NN=Cc1cc2c(cc1O)CCC1C2CCC2(C)C(=O)CCC12` (stereo not drawn) [Me-estrone-TSC]: in series [2], the pCu5.0 is recorded as 7.7 and the pCu6.0 was 9.2. Moreover, the kobs in series [3] is 0.05 ^4 min^−1. Further, the 50% inhibitory concentration (IC50) in series [4] was 25 µM. Moreover, in series [5] (setting [8]), the “logβ [CuLH−1]” value is 9.66 ^3 and the “logβ [CuL]+” value is given as 13.64 ^3. Besides, the pCu7.4 in series [5] (pH 7.4, cCu(II) = 20 µM, cligand = 20 µM) is listed as 11.9 ^3.

With `NC(=O)N/N=C/c1ccccc1O` [SSC], the pKa in series [6] (salicylaldehyde SC) is listed as 9.30.

On to `NC(=S)N/N=C/c1ccccc1O` [STSC, salicylaldehyde TSC, reference compound], for which the “TEAC (Trolox equivalent antioxidant capacity)” value in series [7] (DPPH assay in ethanol, 25 °C) stood at 0.6. In addition, the “% Scavenging Effect” value in series [7] (25 °C) came out at 23.4%. The molecule further yielded an IC50 in series [7] of 19 µM. Besides, the pKa in [6] (salicylaldehyde TSC) is on record as 8.84.

As for `C[C@]12CC[C@@H]3c4cc(C=NNC(N)=O)c(O)cc4CC[C@H]3[C@@H]1CCC2O` (stereo partly drawn) [estradiol-SC, 2-[(3,17 Dihydroxy-estra-1,3,5(10)-triene-2-yl)methylene]Hydrazine-1-carboxamide], the melting point stood at 238 °C. The molecule further had a pKa in “physchem” of 10.02 ± 0.03. In addition, in [2], the “pKa [CuL]+” value was 6.48, the “logβ [CuLH−1]” value was 5.16 ± 0.03, the “logβ [CuL]+” value turned out to be 11.63 ± 0.03 and the pCu5.0 was 5.7. In series [2], the pCu6.0 is 6.3 and the pCu7.4 is 7.8. The kobs entry in series [3] is given as “fast reaction”. For the same molecule, the “% Scavenging Effect” value in series [7] (25 °C) was found to be 6.5%. Also, the IC50 in series [7] was > 50 µM. The MIC against E. faecalis ATCC 29212 (Enterococcus faecalis, ATCC29212) was > 100 µM. This molecule gave an MIC against S. aureus ATCC 25928 of 50 µM (≈ 17.9 µg/mL). In addition, the lowest concentration to inhibit growth against S. aureus ATCC 25928 (Staphylococcus aureus, ATCC25928) (MIC) was 50 µM (≈ 17.9 µg/mL). In addition, in the series on A549 (Homo sapiens), the IC50 is > 20 µM. Also, the “effect on cell viability (in words)” value in the series with A549 is “only slightly toxic”. Further, the “effect on cell viability (in words)” value with DU-145 was “neither the estradiol-SC nor the Cu(II)-estradiol-SC complex exhibit any harmful effect”. In the series on DU-145 (Homo sapiens), the half-maximal inhibitory concentration (IC50) was > 20 µM. Further, in the series with MCF-7 KCR (Homo sapiens, MCF7, 24 h incubation time), the 50% inhibitory concentration (IC50) is > 20 µM. The “effect on cell viability (in words)” value with MCF-7 KCR is listed as “only slightly toxic”. In the series on MCF-7 (Homo sapiens, MCF7), the IC50 is > 20 µM. For the same molecule, the “effect on cell viability (in words)” value in the series on MCF-7 was “neither the estradiol-SC nor the Cu(II)-estradiol-SC complex exhibit any harmful effect”.

What is called MIC is the smallest concentration in the dilution series that meets the test's criterion for growth inhibition. A higher MIC goes with a less susceptible organism. What is called IC50 is the concentration that gives 50% inhibition. As usually defined, the pKa is the pH at which an ionisable group is half protonated. As usually defined, the melting point is the temperature of the solid-liquid transition.
